Measured values reported in US20190015400A1, “Antifungal Compositions” (priority 2017, published 2019).
Entries after “also recorded” stand apart in the source; their conditions may differ.

Experiments:
[1] = test system: C. albicans ATCC 64124 (strain F); assay: MIC and checkerboard assay, azoles + compounds 1-5; assay type: cell-based, Candida albicans; conditions: for MIC in combination: MIC of the labelled drug; for fold reduction in MIC (combination vs alone): reduction for the labelled drug; for MICalone: drug alone
Protocol: (§1) These compounds were serially diluted (two-fold dilutions) horizontally on the plate in 100 μL of RPMI medium. A diluted yeast culture (25 μL of a fungal stock with OD600 of 0.125 in 10 mL of RPMI medium, which achieves a final inoculum size of around 1-5×10^3 CFU/mL) was plated across the plate (100 μL per well), making a final volume of 200 μL total per well.
(§2) The appropriate range of concentrations for each compound was determined based on their corresponding MIC values against each fungal strain. The inoculum size for yeast and filamentous fungi were the same as in the MIC experiments described in section 2.2. The 96-well plates were incubated at 35° C. for 48 h for yeasts and 72 h for the Aspergillus strain before visual inspection for growth. […] The combinational effect of the two tested compounds were considered synergistic (abbreviated SYN) if FICI<0.5, additive (abbreviated ADD) if 0.5<FICI<4, and antagonistic if FICI>4 (TABLES 2-4).

[2] = test system: C. albicans ATCC 10231 (strain B); assay: MIC and checkerboard assay, azoles + compounds 1-5; assay type: cell-based, Candida albicans
Protocol: as §1, §2

[3] = test system: C. glabrata ATCC 2001 (strain H); assay: MIC and checkerboard assay, azoles + compounds 1-5; assay type: cell-based, Candida glabrata
Protocol: as §1, §2

J774A.1 cells = assay: Mammalian cytotoxicity assay, azoles and compound 2
Excerpt: (§3) David K. Orren (University of Kentucky, Lexington, Ky.) and Prof. David J. Feola (University of Kentucky, Lexington, Ky.), respectively.

[4] = test system: C. albicans ATCC 64124 (strain F) biofilm; assay: Biofilm disruption assay (XTT, SMIC99), azoles + compound 2; assay type: cell-based, Candida albicans; conditions: for FICI / Interp.: biofilm
Protocol: In order to investigate the synergistic effect of azoles and our compounds on inhibiting biofilm formation of C. albicans ATCC 64124 (strain F), we performed a biofilm disruption assay in a checkerboard setup and used XTT [2,3-bis(2-methoxy-4-nitro-5-sulfophenyl)-2H-tetrazolium-5-carboxanilide] reduction to examine the metabolic activity of the biofilm. Briefly, C. albicans ATCC 64124 (strain F) was grown overnight in YEPD broth at 35° C. The culture was then diluted to an OD600 of 0.12 (equivalent to 1×10^6 CFU/mL) and 100 μL was placed into each well of a 96-well plate. The cells were incubated at 37° C. for 24 h for growth. The following day, the spent medium containing planktonic cells was aspirated and each wells were carefully washed three times with sterile phosphate buffer saline (PBS). […] The negative control (medium only) and the positive control (biofilm plus medium) wells were also included in the same 96-well plate. The plates were then incubated at 37° C. statically for additional 24 h and then washed with sterile PBS. 100 μL of a XTT (0.5 mg/mL)/menadione (1 μM) solution was added to each well, covered with aluminum foil, and incubated for 2 h at 37° C. Then, 80 μL of the colored supernatant from each well was transferred to a new 96-well plate, and the absorption was read at OD490. The percent metabolic activity of the formed biofilm at various drug concentration combinations was calculated by dividing the metabolic activity of biofilm formed for that well by that of the biofilm formed in the growth control well (in the absence of any drug). For these experiments, the sessile MIC (SMIC99) was determined, which is defined as the drug concentration required to inhibit the metabolic activity of biofilm by 99% compared to the growth control. The assay for each combination was performed in duplicates.

BEAS-2B cells = assay: Mammalian cytotoxicity assay, azoles and compound 2; assay type: cell-based, human
Excerpt: as §3

HEK-293 cells = assay: as above; assay type: cell-based, human
Excerpt: as §3

[5] = test system: Aspergillus terreus ATCC MYA-3633 (strain I); assay: MIC and checkerboard assay, azoles + compounds 1-5; assay type: cell-based; conditions: in combination with POS
Protocol: as §1, §2

[6] = test system: C. albicans ATCC 64124 (strain F); assay: Time-kill assay, azoles + compound 2; assay type: cell-based, Candida albicans
Protocol: Each sample was incubated at 35° C. with shaking at 200 rpm. At various time points (0, 3, 6, 9, 12, and 24 h), 100 μL aliquots were taken from each sample and serially diluted (10-fold dilutions) in sterile ddH2O. 100 μL of each dilution was spread onto PDA plates and incubated at 35° C. for 48 h before colony counts were determined (FIGS. 2A-B). At the end of the 24-h experiment, 50 μL of 1 mM sterile resazurin solution was added to each sample for visual comparison of growth. Each experiment was performed in duplicate.

[7] = test system: C. albicans ATCC 90819 (strain G); assay: MIC and checkerboard assay, azoles + compounds 1-5; assay type: cell-based, Candida albicans
Protocol: as §1, §2

[8] = test system: C. glabrata ATCC 2001 (strain H) biofilm; assay: Biofilm disruption assay (XTT, SMIC90), POS and EBA; assay type: cell-based, Candida glabrata; conditions: drug alone
Protocol: (§4) Biofilm disruption assays. […] Biofilm assays were performed in 96-well plates using XTT [2,3-bis(2-methoxy-4-nitro-5-sulfophenyl)-2H-tetrazolium-5-carboxanilide] to measure the viability of the biofilm as previously described. An overnight culture of yeast was grown at 35° C. in YEPD medium with shaking at 200 rpm. The overnight culture was diluted in RPMI 1640 medium to an OD600 between 0.12 and 0.15 to make a working stock. Working stock was transferred to the 96-well plate in 100 μL aliquots, leaving one column empty for the sterile control. The plates were incubated at 37° C. for 24 h to allow formation of the biofilm. The medium and planktonic cells from the plate were then aspirated. PBS was then used to wash any remaining planktonic cells off of the biofilm wells. 100 μL of PBS was aliquoted into wells and then removed. The wells were washed 3 times with PBS. […] Plates were incubated at 37° C. for 24 h. Finally, the plates were washed 3 times with PBS before adding 100 μL of XTT dye. The XTT was prepared by dissolving XTT at 0.5 mg/mL concentration in sterile PBS. Before adding to a plate, 1 μL of 10 mM menadione in acetone was added to 10 mL of the 0.5 mg/mL solution of XTT. After addition of XTT (containing menadione), the plates were incubated at 3 h at 37° C. in the dark. 80 μL of liquid from each well was transferred to a new plate. Plates were then read with a SpectraMax M5 plate reader (Molecular Devices, Sunnyvale, Calif., USA) for absorbance at 450 nm. For these experiments, we determined the sessile MIC (SMIC90), which is defined as the drug concentration required to inhibit the metabolic activity of biofilm by 90% compared to the growth control. The SMIC90 values were used to calculate the FICI as described above (TABLE 10). The plates used to determine the SMIC90 are provided in FIGS. 91A-H. Each assay was performed in duplicate.

[9] = test system: C. albicans ATCC 10231 (strain B) biofilm; assay: as above; assay type: cell-based, Candida albicans; conditions: drug alone
Protocol: as §4

[10] = azole 16 μg/mL + 8 μg/mL compound 2
[11] = azole at any concentration + 32 μg/mL compound 2
[12] = drug alone, up to highest concentration tested (azoles 16 μg/mL, compound 2 64 μg/mL)
[13] = combination with POS at 8×MICcombo
[14] = combination with VOR at 8×MICcombo

In the case of O=C(CCCN1CCC(O)(c2ccc(Br)cc2)CC1)c1ccc(Br)cc1 [Compound 4], the “combinational effect (FICI interpretation)” value (shortened to “combinational effect”) ([1]; in combination with KTC) is reported as “partial synergy”, the “combinational effect” value ([1]; in combination with POS) is reported as “synergistic interactions” and the “combinational effect” value ([1]; in combination with VOR) is reported as “Partial synergy”. For the same compound, the “combinational effect” value ([2]; in combination with KTC) was “partial synergy” and the “combinational effect” value ([3]; in combination with POS) was “synergistic; also recorded: strong synergy”.

In the case of C[C@@H](c1ncncc1F)[C@](O)(Cn1cncn1)c1ccc(F)cc1F [VOR, voriconazole], the MIC in combination ([1]; combination compound 5 + VOR) is reported as 2 µg/mL, the cytotoxicity (J774A.1 cells; [10]) is reported as “no toxicity” and the cytotoxicity (J774A.1 cells; drug alone, any concentration tested (up to 16 μg/mL)) is reported as “No cytotoxic effect”. For the same compound, the “SMIC alone (μg/mL) Azole” value ([4]; azole alone, sessile cells) was >32 µg/mL, the “SMIC combo (μg/mL) Azole” value ([4]; azole in combination with compound 2) was 0.5 µg/mL and the cytotoxicity (BEAS-2B cells; [10]) was “no toxicity”. The cytotoxicity (BEAS-2B cells; [11]) was “no toxicity”, the cytotoxicity (BEAS-2B cells; [12]) was “No cytotoxic effect” and the cytotoxicity (HEK-293 cells; [10]) was “no toxicity”. The cytotoxicity (HEK-293 cells; [11]) was “no toxicity” and the cytotoxicity (HEK-293 cells; [12]) was “No cytotoxic effect”.

With CCC(C)n1ncn(-c2ccc(N3CCN(c4ccc(OCC5COC(Cn6cncn6)(c6ccc(Cl)cc6Cl)O5)cc4)CC3)cc2)c1=O (centres unmarked) [ITC, itraconazole] the MIC in combination ([1]; combination compound 2 + ITC) was 2 µg/mL and the “fold reduction in MIC (combination vs alone)” value ([1]; combination compound 2 + ITC) was 16 fold.

With COc1ccc(C(=O)CCCN2CCC(O)(c3ccc(Br)cc3)CC2)cc1 [Compound 5] the “fold reduction in MIC (combination vs alone)” value ([1]; combination compound 5 + VOR) was 16 fold, the MICalone [1] was > 128 µg/mL and the FICI ([1]; in combination with POS) was 0.13. The “combinational effect” value ([1]; in combination with POS) was “synergistic interactions”, the “combinational effect” value ([1]; in combination with VOR) was “strong additive effect” and the “combinational effect” value ([2]; in combination with VOR) was “Partial synergy”. For the same compound, the “combinational effect” value [5] was “synergistic” and the “combinational effect” value ([3]; in combination with POS) was “partial synergy”.

O=C(CCCN1CCC(O)(c2ccc(Br)cc2)CC1)c1ccc(F)cc1 [Compound 2, bromperidol] was tested, and the “CFU/mL throughout 24 h” value [6, 13] was “around 1×10^5 CFU/mL”, the time-kill effect [6, 13] was “fungistatic effect” and the “reduction in CFU/mL over 24 h” value [6, 14] was “about 1 log10 unit”. For the same compound, the time-kill effect [6, 14] was “fungistatic effect”, the “increase in CFU/mL” value ([6]; drug alone at the concentration of the 8×MICcombo sample, 24 h) was “about 1 order of magnitude” and the “combinational effect” value ([7]; in combination with POS) was “synergy”. For the same compound, the “combinational effect” value ([7]; in combination with VOR) was “synergy”, the MIC in combination ([1]; combination compound 2 + ITC) was 64 µg/mL and the MIC in combination ([1]; combination compound 2 + POS) was 4 µg/mL. For the same compound, the MICalone [1] was 128 µg/mL, the FICI ([1]; in combination with ITC) was 0.56 and the “combinational effect” value ([1]; in combination with ITC) was “partial synergy”. The “combinational effect” value ([1]; in combination with KTC) was “partial synergy”, the FICI ([1]; in combination with POS) was 0.16 and the “combinational effect” value ([1]; in combination with POS) was “synergy”. The “combinational effect” value ([1]; in combination with VOR) was “synergy”, the “combinational effect” value ([2]; in combination with ITC) was “partial synergy” and the “combinational effect” value ([2]; in combination with KTC) was “partial synergy”. The “combinational effect” value ([2]; in combination with POS) was “partial synergy”, the “combinational effect” value ([2]; in combination with VOR) was “partial synergy” and the “combinational effect” value [5] was “synergy; also recorded: synergistic”. For the same compound, the cell survival (J774A.1 cells; drug alone at 16 μg/mL) was 72±14%, the cell survival (J774A.1 cells; drug alone at 32 μg/mL) was 50±7% and the cell survival (J774A.1 cells; drug alone at 64 μg/mL) was 30±4%. The “highest concentration at which no cytotoxicity was observed” value (J774A.1 cells; drug alone, stated for all three cell lines (BEAS-2B, HEK-293, J774A.1), J774A.1 limiting) was 8 µg/mL, the FICI ([4]; in combination with POS) was 1.02 and the Interp. ([4]; in combination with POS) was “ADD*”. The FICI ([4]; in combination with VOR) was 1.02, the Interp. ([4]; in combination with VOR) was “ADD*” and the “SMIC alone (μg/mL) Cpd” value ([4]; compound alone, sessile cells) was >128 µg/mL. The “SMIC combo (μg/mL) Cpd” value ([4]; compound in combination with POS) was 128 µg/mL, the “SMIC combo (μg/mL) Cpd” value ([4]; compound in combination with VOR) was 128 µg/mL and the “combinational effect” value ([3]; in combination with POS) was “partial synergy”. For the same compound, the “combinational effect” value ([3]; in combination with VOR) was “partial synergy”.

C[C@@H]1[C@H](O)[C@@H](C)/C=C/C=C/C=C/C=C/C=C/C=C/C=C/[C@H](O[C@@H]2O[C@H](C)[C@@H](O)[C@H](N)[C@@H]2O)C[C@@H]2O[C@](O)(C[C@@H](O)C[C@@H](O)[C@H](O)CC[C@@H](O)C[C@@H](O)CC(=O)O[C@H]1C)C[C@H](O)[C@H]2C(=O)O [AMB, amphotericin B] was tested, and the SMIC90 [8] was 4 µg/mL and the SMIC90 [9] was >32 µg/mL.

O=C(CCCN1CCC(O)(c2ccc(Br)cc2)CC1)c1ccc(Cl)cc1 [Compound 3] was tested, and the “combinational effect” value ([1]; in combination with KTC) was “partial synergy”, the “combinational effect” value ([1]; in combination with POS) was “synergy; also recorded: synergistic interactions” and the “combinational effect” value ([1]; in combination with VOR) was “partial synergy; also recorded: synergistic interactions”. The “combinational effect” value ([2]; in combination with KTC) was “partial synergy”, the “combinational effect” value ([2]; in combination with POS) was “partial synergy” and the “combinational effect” value ([2]; in combination with VOR) was “partial synergy”.

In the case of O=C(CCCN1CCC(O)(c2ccc(Br)cc2)CC1)c1ccccc1 [Compound 1], the “combinational effect” value ([1]; in combination with POS) is reported as “synergy; also recorded: synergistic interactions”, the “combinational effect” value ([1]; in combination with VOR) is reported as “partial synergy” and the “combinational effect” value ([2]; in combination with POS) is reported as “partial synergy”. For the same compound, the “combinational effect” value ([2]; in combination with VOR) was “partial synergy”, the “combinational effect” value ([3]; in combination with POS) was “partial synergy” and the “combinational effect” value ([3]; in combination with VOR) was “strong additive effect”.
